Results as given in patent US20230257366A1, “SULFUR-CONTAINING ISOINDOLINE DERIVATIVE, AND PREPARATION METHOD THEREFOR AND MEDICAL USE THEREOF” (JIANGSU HENGRUI PHARMACEUTICALS CO., LTD., priority 2020, published 2023).

Test system: NCI-H929 cells
Assay: NCI-H929 proliferation experiment (CellTiter-Glo, 5 days)
Assay type: cell-based
Settings: Homo sapiens, 120 h, 5 days incubation, read-out: IC50 values for the inhibition of proliferation of NCI-H929 cells
Experimental: The following method was used to determine the inhibitory activity of the compounds of the present disclosure on the proliferation of NCI-H929 cells. The experimental method was briefly described as follows.
NCI-H929 cells (ATCC, CRL-9068) were cultured in a complete medium (RPMI 1640 medium (Hyclone, SH30809.01) containing 10% fetal bovine serum (Corning, 35-076-CV) and 0.05 mM 2-mercaptoethanol (Sigma, M3148)). On the first day of the experiment, NCI-H929 cells were seeded in a 96-well plate at a density of 6000 cells/well with a complete medium to form 100 μL of cell suspension per well, and 10 μL of test compound prepared in a complete medium and diluted in a gradient was added to each well. The compound was firstly dissolved in DMSO, with an initial concentration of 10 mM, and then subjected to serial dilution at a 5-fold concentration gradient for a total of 9 concentration points, with a blank control of 100% DMSO. Another 5 μL of the compound dissolved in DMSO was added to 95 μL of complete medium, i.e., the compound was diluted 20-fold with the complete medium. Finally the compound diluted in the complete medium at 10 μL/well was added to the cell suspension, wherein the final concentrations of the compound were 9 concentration points obtained by 5-fold gradient dilution starting from 50 μM. A blank control containing 0.5% DMSO was set. The plate was incubated in a cell incubator at 37° C. with 5% CO2 for 5 days. On the sixth day, the 96-well cell culture plate was taken out, added with a CellTiter-Glo® luminescent cell activity detect reagent (Promega, G7573) at 50 μL/well, left to stand at room temperature for 10 min, and read for the luminescence signal values using a multi-mode microplate reader (PerkinElmer, EnVision 2015). IC50 values for the inhibitory activity of the compounds were calculated using Graphpad Prism software, with the results shown in Table 1.

Compound	IC50
N#Cc1ccc(N2CCC(Sc3ncc(COc4cccc5c4CN([C@H]4CCC(=O)NC4=O)C5=O)cn3)CC2)c(F)c1 [Compound 7, (S)-4-(4-((5-(((2-(2,6-dioxopiperidin-3-yl)-1-oxoisoindolin-4-yl)oxy)methyl)pyrimidin-2-yl)thio)piperidin-1-yl)-3-fluorobenzonitrile]	0.13 nM
N#Cc1ccc(N2CCC(Sc3ccc(COc4cc(F)cc5c4CN([C@H]4CCC(=O)NC4=O)C5=O)cn3)CC2)c(F)c1 [Compound 8, (S)-4-(4-((5-(((2-(2,6-dioxopiperidin-3-yl)-6-fluoro-1-oxoisoindolin-4-yl)oxy)methyl)pyridin-2-yl)thio)piperidin-1-yl)-3-fluorobenzonitrile]	0.28 nM
N#Cc1ccc(N2CCC(Sc3ccc(COc4cccc5c4CN([C@H]4CCC(=O)NC4=O)C5=O)c(F)c3F)CC2)c(F)c1 [Compound 10, (S)-4-(4-((4-(((2-(2,6-dioxopiperidin-3-yl)-1-oxoisoindolin-4-yl)oxy)methyl)-2,3-difluorophenyl)thio)piperidin-1-yl)-3-fluorobenzonitrile]	0.18 nM
N#Cc1ccc(N2CCC(Sc3cc(F)c(COc4cccc5c4CN([C@H]4CCC(=O)NC4=O)C5=O)cc3F)CC2)c(F)c1 [Compound 11, (S)-4-(4-((4-(((2-(2,6-dioxopiperidin-3-yl)-1-oxoisoindolin-4-yl)oxy)methyl)-2,5-difluorophenyl)thio)piperidin-1-yl)-3-fluorobenzonitrile]	0.22 nM
N#Cc1ccc(N2CCC(Sc3c(F)cc(COc4cccc5c4CN([C@H]4CCC(=O)NC4=O)C5=O)cc3F)CC2)c(F)c1 [Compound 12, (S)-4-(4-((4-(((2-(2,6-dioxopiperidin-3-yl)-1-oxoisoindolin-4-yl)oxy)methyl)-2,6-difluorophenyl)thio)piperidin-1-yl)-3-fluorobenzonitrile]	0.61 nM

More lines, now with the values ahead:

IC50	Compound
0.34 nM	N#Cc1ccc(N2CCC(Sc3ccc(COc4cccc5c4CN(C4CCC(=O)NC4=O)C5=O)cc3)CC2)c(F)c1 (centres unmarked) [Compound 1, 4-(4-((4-(((2-(2,6-dioxopiperidin-3-yl)-1-oxoisoindolin-4-yl)oxy)methyl)phenyl)thio)piperidin-1-yl)-3-fluorobenzonitrile]
4.36 nM	N#Cc1ccc(N2CCC(Sc3ccc(COc4cccc5c4C(=O)N(C4CCC(=O)NC4=O)C5=O)cc3)CC2)c(F)c1 (centres unmarked) [Compound 2, 4-(4-((4-(((2-(2,6-dioxopiperidin-3-yl)-1,3-dioxoisoindolin-4-yl)oxy)methyl)phenyl)thio)piperidin-1-yl)-3-fluorobenzonitrile]
0.1 nM	N#Cc1ccc(N2CCC(Sc3ccc(COc4cccc5c4CN([C@H]4CCC(=O)NC4=O)C5=O)cc3)CC2)c(F)c1 [Compound 3, (S)-4-(4-((4-(((2-(2,6-dioxopiperidin-3-yl)-1-oxoisoindolin-4-yl)oxy)methyl)phenyl)thio)piperidin-1-yl)-3-fluorobenzonitrile]
0.17 nM	N#Cc1ccc(N2CCC(Sc3ccc(COc4cccc5c4CN([C@H]4CCC(=O)NC4=O)C5=O)cc3F)CC2)c(F)c1 [Compound 4, (S)-4-(4-((4-(((2-(2,6-dioxopiperidin-3-yl)-1-oxoisoindolin-4-yl)oxy)methyl)-2-fluorophenyl)thio)piperidin-1-yl)-3-fluorobenzonitrile]
0.08 nM	N#Cc1ccc(N2CCC(Sc3ccc(COc4cccc5c4CN([C@H]4CCC(=O)NC4=O)C5=O)c(F)c3)CC2)c(F)c1 [Compound 5, (S)-4-(4-((4-(((2-(2,6-dioxopiperidin-3-yl)-1-oxoisoindolin-4-yl)oxy)methyl)-3-fluorophenyl)thio)piperidin-1-yl)-3-fluorobenzonitrile]
0.9 nM	N#Cc1ccc(N2CCC(Sc3ccc(COc4cccc5c4CN([C@H]4CCC(=O)NC4=O)C5=O)nc3)CC2)c(F)c1 [Compound 9, (S)-4-(4-((6-(((2-(2,6-dioxopiperidin-3-yl)-1-oxoisoindolin-4-yl)oxy)methyl)pyridin-3-yl)thio)piperidin-1-yl)-3-fluorobenzonitrile]
